The data set in a line: gradient 5% acetonitrile 3 min, to 50% in 2 min, to 85% in 15 min, held 3 min, 100 µL/min. Particulars: column: Zorbax Extend-C18 2.1 x 50 mm; eluents: water / acetonitrile, 0.1% formic acid. An outline of the steps:
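Mixtures of ~100 pure standards were chromatographed on a Zorbax Extend-C18 column (2.1 × 50 mm, 1.8 μm) at 100 μL/min using water and acetonitrile, each with 0.1% formic acid. Detection used a quadrupole time-of-flight mass spectrometer in positive and negative ionization mode, and data collection spanned 3 months. Retention time was obtained from adduct peaks picked computationally and each checked manually.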
In turn, `CCCc1noc(-c2cccn3c(CC(=O)N4CCOCC4)nnc23)n1` came in with an RP-LC retention time of 626 s. Under `COCc1noc([C@@H]2CC(F)(F)CN2C(=O)C2CC=CC2)n1` stands 777 s; under `Cc1cccc(C)c1NC(=O)C1CCN(S(=O)(=O)c2ccc3c(c2)NC(=O)C(C)O3)CC1` (centres undefined), 824 s. The value for `COc1cccc(NC(=O)N2CCC(n3c(C(F)(F)F)nc4cccnc43)CC2)c1` was 861 s; that for `O=C(NCCCN1CCCC1)C1CCN(c2nnc3ccc(Cl)cn23)CC1` was 556 s. As for `CCCNC(=O)C1CCN(c2ccc(SCC(=O)Nc3ccc(Cl)cc3)nn2)CC1`, the RP-LC retention time came out at 655 s. Under `Cc1cccc(NC(=O)CN2C(=O)CCS(=O)(=O)c3ccccc32)c1C` stands 760 s. The value for `O=C1OC(Nc2nc(-c3cccc(Br)c3)cs2)c2ccccc21` (centres undefined) was 862 s. For `O=C(NC1CCCCC1)NC1CCN(C(=O)C2CCC2)C1` (centres undefined), the RP-LC retention time was found to be 680 s.

`Cn1nccc1-c1cccc(-c2noc(-c3ccc(F)c(F)c3)n2)c1` had an RP-LC retention time of 1170 s. The compound `COC(=O)CNC(=O)C1CN(C(=O)c2ccccc2)CC12CCCCC2` (centres undefined) registered an RP-LC retention time of 731 s.

As for `COc1ccc(Cn2cccc2-c2nc(C)no2)cc1`, the RP-LC retention time came out at 1020 s.

`COc1ccc(C(=O)N2CCCC2c2nc(-c3ccc(OC)c(OC)c3)no2)cc1` (centres undefined) gave an RP-LC retention time of 848 s. In the case of `CCN1CCn2cc(S(=O)(=O)Nc3cccc(Cl)c3)cc2C1=O`, the RP-LC retention time is 728 s. `Cc1cccc(N2CCN(CC(O)COc3ccc(Cl)cc3)CC2)c1` (centres undefined) returned an RP-LC retention time of 846 s. The value for `O=C(NCc1ccccn1)C1CCN(C(=O)c2ncn3c2COC(c2ccccc2)C3)CC1` (centres undefined) was 602 s; that for `O=C(NCc1ccc2c(c1)OCO2)C1CCCN(c2ncc(-c3ccccc3)cn2)C1` (centres undefined) was 992 s; that for `O=C(CNC(=O)c1ccc(F)c(F)c1)Nc1nc2ccccc2[nH]1` was 632 s.

Compound `CCN1c2cc(C(=O)NCc3ccc(SC)cc3)ccc2C(=O)N2CCCCC21` (centres undefined) had an RP-LC retention time of 856 s. `CCS(=O)(=O)NCC1CCN(C(=O)COc2ccccc2)CC1` came in with an RP-LC retention time of 659 s. Compound `COc1cccc(CNC(=O)Cn2c(-c3ccc(F)cc3)ncc(C#N)c2=O)c1` yielded an RP-LC retention time of 873 s. As to `COc1ccc(-c2noc(Cc3nnc(-c4cccc(Cl)c4)o3)n2)cc1F`, the RP-LC retention time was determined as 1060 s. On to `CCC(=O)NCc1cnn(-c2ccc(C(=O)Nc3ccc4c(c3)OCCO4)cc2)c1`, for which the RP-LC retention time stood at 702 s. Consider `O=C(Nc1ccc(F)c(Cl)c1)C1CCN(S(=O)(=O)c2ccc3[nH]c(=O)ccc3c2)CC1`, for which the RP-LC retention time came out at 812 s. Compound `Cc1cccc(NC(=O)N2CCc3nc(C)ncc3C2)c1` gave an RP-LC retention time of 656 s. The compound `O=C(NCc1ccccc1Br)C1CCN(c2nnc(-c3ccccc3)o2)CC1` gave an RP-LC retention time of 880 s. `O=S(=O)(c1ccc2c(c1)-c1oncc1CO2)N1CCCc2ccccc21` registered an RP-LC retention time of 1020 s. Under `CC(C)CC(=O)N1CCc2nc(-c3ccccc3)ncc2C1` stands 868 s. `O=C(CCc1nnc2ccc(NCc3ccccc3)nn12)N1CCN(c2ccccn2)CC1` had an RP-LC retention time of 588 s. The value for `O=C(Nc1cccc(OCc2nnc(-c3ccc(Cl)cc3)o2)c1)c1cnccn1` was 946 s; that for `O=C(Nc1cccc(-c2nnc3n2CCCC3)c1)C1CCCCC1` was 699 s; that for `CCc1noc(NC(C)=O)c1-c1ccc(OC)c(S(=O)(=O)N2CCOCC2)c1` was 676 s. For the compound `Cc1nc(N2CCCC2)c2c(C(=O)Nc3cccc(F)c3)c(C)oc2n1`, the RP-LC retention time was determined as 784 s. In turn, `O=C1/C(=C\c2cccs2)Oc2ccccc21` showed an RP-LC retention time of 958 s.

As for `O=C(Cn1c(=O)c(=O)n(Cc2ccncc2)c2ncccc21)NC1CCCCCCC1`, the RP-LC retention time stood at 646 s. The value for `CC(C)c1nccn1C1CN(C(=O)COc2ccccc2)C1` was 596 s. `CCCc1nc(-c2c(C)cc(C)nc2NC(=O)c2ccc(C)cc2)no1` returned an RP-LC retention time of 893 s. `COc1ccc(-c2nc3ccccn3c2NC(=O)c2cccc([N+](=O)[O-])c2)cc1` returned an RP-LC retention time of 659 s. `O=C(Nc1nccs1)c1cc(-c2ccncc2)nc2ccccc12` had an RP-LC retention time of 614 s. The value for `Cc1ccccc1CNS(=O)(=O)c1cn(CC(C)C)c2ncccc12` was 763 s; that for `COc1ccc(-c2noc(C3CCCN3C(=O)c3ccc(C)cc3)n2)cc1` (centres undefined) was 1010 s; that for `O=C(c1cnccn1)N1CCCn2nc(-c3ccc(Cl)cc3)cc2C1` was 788 s. Compound `CCCOc1nc2ccccc2nc1N1CCCC(C(=O)Nc2ccc(OC)c(OC)c2)C1` (centres undefined) returned an RP-LC retention time of 1130 s.

`CCOC(=O)c1cccc(NC(=O)Cn2c(=O)c(CCC(=O)NC3CCCC3)nc3ccccc32)c1` yielded an RP-LC retention time of 876 s.

As for `COc1ccc(-c2nnc(Cc3nc(C(C)C)no3)o2)cc1`, the RP-LC retention time was 858 s.

`O=C(c1nc2ccccn2c1-c1ccsc1)N1CCCC1` had an RP-LC retention time of 622 s.

Consider `Cc1ccccc1-c1nc(-c2ccc3c(c2)oc(=O)n3C)no1`, for which the RP-LC retention time worked out at 1110 s.

Regarding `O=C(CSc1nc(N2CCCCC2)nc2ccccc12)Nc1ccc(Br)cc1`, the RP-LC retention time was 810 s. In the case of `CCN(CC)S(=O)(=O)c1ccc2c(c1)CC(C(=O)NCCN(C)C)N2C(C)=O` (centres undefined), the RP-LC retention time came out at 645 s. Turning to `CCn1c(=O)oc2cc(-c3noc(-c4ccc(F)cc4Cl)n3)ccc21`, the RP-LC retention time turned out to be 1190 s.

In turn, `COc1ccc(C)cc1NC(=O)Nc1c(-c2ccc(C)cc2)nc2ccccn12` registered an RP-LC retention time of 722 s.

In the case of `Cc1ccc2[nH]cc(CCNC(=O)c3cccc(NC(=O)c4nnc(C5CC5)s4)c3)c2c1`, the RP-LC retention time was determined as 932 s. In turn, `CC(NC(=O)c1ccc(-c2ccnc(N3CCCC3)n2)cc1)c1cccnc1` (centres undefined) registered an RP-LC retention time of 586 s.

Compound `O=S(=O)(c1cc(-c2nnc(-c3ccc(F)cc3)o2)ccc1Cl)N1CCCC1` showed an RP-LC retention time of 1070 s. Consider `COc1cc(=O)n2c(c1C(=O)Nc1ccc(Br)cc1)CCCC2`, for which the RP-LC retention time is 760 s.

In the case of `COc1ccc(CNC(=O)c2c(C)sc3ccn(Cc4ccc(F)cc4)c(=O)c23)cc1`, the RP-LC retention time was found to be 974 s. The compound `COc1ccc(-c2ccnc3nc(C4CC4)nn23)c(F)c1` yielded an RP-LC retention time of 797 s.

`COc1ccccc1NC(=O)C1CCN(S(=O)(=O)c2cc(C(=O)N(C)C)cs2)CC1` gave an RP-LC retention time of 789 s. `CCn1cc(C(=O)N[C@@H](Cc2ccccc2)C(=O)O)c(=O)c2cc3c(cc21)OCO3`: the RP-LC retention time came to 728 s.

`COc1ccc(CCC(=O)N2CCc3c(c(C(=O)N4CCCC(C(=O)NC5CC5)C4)nn3C)C2)cc1` (centres undefined) returned an RP-LC retention time of 649 s.

`CCCNC(=O)C1CCCN(C(=O)c2cc(C)cc(C)c2)C1` (centres undefined) came in with an RP-LC retention time of 746 s. In turn, `Cc1ccc(-c2cc3c4nn(CC(=O)NCc5ccco5)c(=O)n4ccn3n2)cc1C` yielded an RP-LC retention time of 874 s. In turn, `O=C(Nc1ccc2c(c1)CN(C(=O)C1CC1)CC2)NC1CC1` returned an RP-LC retention time of 632 s. With `CC(NC(=O)Cc1cccn1-c1ccc(Cl)cc1)c1ccccn1` (centres undefined), the RP-LC retention time is 790 s. The compound `Cc1cc(C(=O)N2C[C@@H](F)C[C@H]2C(=O)N2CCc3ccccc3C2)n(C)n1` came in with an RP-LC retention time of 683 s. In turn, `O=C(C1CC1)N1CCc2sc(S(=O)(=O)Nc3ccc(F)cc3)cc2C1` showed an RP-LC retention time of 799 s. `O=C(Cn1c(=O)cc(-c2nc(C3CC3)no2)c2ccccc21)NCc1ccc(Cl)cc1` showed an RP-LC retention time of 979 s. Under `CCN1C(=O)c2cc(S(=O)(=O)Nc3ccc(Cl)cc3)ccc2Oc2cccnc21` stands 1050 s; under `CCc1ccc(N2C(=O)CN(CCc3ccccc3F)[C@H]3CS(=O)(=O)C[C@H]32)cc1`, 904 s; under `Cc1ccc(CN2CC(Oc3ccc(-c4noc(C5CCOCC5)n4)cc3)C2)o1`, 686 s. For the compound `Cc1c(C(=O)C(=O)Nc2ccc(F)cc2)c2ccccc2n1C`, the RP-LC retention time was determined as 921 s. As to `Cc1ccccc1Nc1c(-c2cccc(Cl)c2)nc2ccc(Cl)cn12`, the RP-LC retention time was determined as 1080 s.

Regarding `COC(=O)c1cccc(NC(=O)N2CCSc3ncccc32)c1`, the RP-LC retention time is 739 s.

As for `Cn1c(=O)c(=O)n(C)c2cc(N3CCCC3)c(NC(=O)Cc3ccc(Cl)cc3)cc21`, the RP-LC retention time was determined as 685 s.

For `CCOc1ccc(C2C(C(=O)O)c3ccccc3C(=O)N2CCN2CCOCC2)cc1` (centres undefined), the RP-LC retention time stood at 649 s.

Regarding `COC(=O)c1ccc(NS(=O)(=O)c2ccc(-c3c(C)noc3C)cc2)cc1`, the RP-LC retention time came to 866 s.

The compound `CCC(c1cccs1)N1C(=O)[C@H]2CN(S(=O)(=O)c3cccnc3)C[C@H]2C1=O` (some centres undefined) showed an RP-LC retention time of 824 s.

For the compound `Cc1ccc(-c2noc(Cn3c(=O)n(CC4CCCO4)c(=O)c4ccccc43)n2)cc1` (centres undefined), the RP-LC retention time was 1040 s. The value for `O=C(Cn1cnc2nc3c(cc2c1=O)CCCC3)N1CCN(C(=O)c2ccco2)CC1` was 622 s.

Source of the values: the METLIN SMRT retention time set (Domingo-Almenara et al. 2019).
